According to patent US4154967A, “Process for preparation of phenols” (Mitsui Petrochemical Industries, Ltd., priority 1976, dated 1979):

Assay: physchem
Conditions: ethanol-water

Compound	pKa
Fc1cccc(S)c1 [meta-fluorophenyl mercaptan]	6.8
FC(F)(F)c1ccc(Cl)c(S)c1 [2-chloro-5-trifluoromethylphenyl mercaptan]	6
Sc1ccc(I)cc1 [para-iodophenyl mercaptan]	6.9
O=C(O)c1ccccc1S [orthocarboxyphenyl mercaptan]	5.6
N#Cc1ccc(S)cc1 [para-cyanophenyl mercaptan]	6
Sc1cc(Cl)c(Cl)cc1Cl [2,4,5-trichlorophenyl mercaptan]	4.2
Sc1cccc(Cl)c1 [meta-chlorophenyl mercaptan]	6.7
O=S(=O)(O)c1cccc(S)c1 [meta-mercaptobenzenesulfonic acid]	5.9
O=C(O)c1ccc(S)cc1 [para-carboxyphenyl mercaptan]	5.9
O=[N+]([O-])c1cccc(S)c1 [meta-nitrophenyl mercaptan]	5.9
Sc1cccc(I)c1 [meta-iodophenyl mercaptan]	6.8
O=S(=O)(O)c1ccc(S)cc1 [para-mercaptobenzenesulfonic acid]	5.7
Sc1c(Cl)c(Cl)c(Cl)c(Cl)c1Cl [pentachlorophenyl mercaptan]	3.5
Fc1c(F)c(F)c(S)c(F)c1F [pentafluorophenyl mercaptan]	2.7
Sc1ccc(Cl)cc1 [para-chlorophenyl mercaptan]	7
O=[N+]([O-])c1ccc(S)c([N+](=O)[O-])c1 [2,4-dinitrophenyl mercaptan]	4
CS(=O)(=O)c1ccc(S)cc1 [para-methylsulfonylphenyl mercaptan]	5.6

The remaining lines, values ahead:

pKa	Compound
6.9	CC(=O)c1cccc(S)c1 [meta-acetyl phenyl mercaptan]
6.2	Sc1ccc(Cl)c(Cl)c1 [3,4-dichlorophenyl mercaptan]
5.8	Sc1cc(Cl)cc(Cl)c1 [3,5-dichlorophenyl mercaptan]
6.2	FC(F)(F)c1cc(S)ccc1Cl [3-trifluoromethyl-4-chlorophenyl mercaptan]
6.3	O=C(S)c1ccccc1 [thiobenzoic acid]
7.5	Fc1ccc(S)cc1 [para-fluorophenyl mercaptan]
5.9	CS(=O)(=O)c1cccc(S)c1 [meta-methylsulfonylphenyl mercaptan]
5.9	CC(=O)c1ccc(S)cc1 [para-acetyl phenyl mercaptan]
6.3	N#Cc1cccc(S)c1 [meta-cyanophenyl mercaptan]
7	Sc1ccc(Br)cc1 [para-bromophenyl mercaptan]
6.8	Sc1cccc(Br)c1 [meta-bromophenyl mercaptan]
